ChEMBL document CHEMBL1201862, “PubChem BioAssay data set” (2004)
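96-well plates; 48 h exposure; 5 concentrations. Endpoints by linear interpolation between flanking doses. Not reached: highest tested concentration assigned. The concentration for 50% growth inhibition is given as GI50.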 Activity calls are given as the source filed them. Rule as the data show it: active = GI50 up to about 1.1 µM and inactive = higher.

What was measured:
Test in all cases: inhibition of tumour cell growth, NCI panel, 48 h
[1] = tested on: 786-0
[2] = tested on: A498
[3] = tested on: A549
[4] = tested on: ACHN
[5] = tested on: BT-549
[6] = tested on: CAKI-1
[7] = tested on: CCRF-CEM
[8] = tested on: COLO 205
[9] = tested on: DU-145
[10] = tested on: EKVX
[11] = tested on: HCT-116
[12] = tested on: HCT-15
[13] = tested on: HL-60
[14] = tested on: HOP-62
[15] = tested on: HOP-92
[16] = tested on: HT-29
[17] = tested on: Hs-578T
[18] = tested on: IGROV-1
[19] = tested on: KM12
[20] = tested on: LOX IMVI
[21] = tested on: M14
[22] = tested on: MCF7
[23] = tested on: MDA-MB-435
[24] = tested on: Malme-3M
[25] = tested on: NCI-H23
[26] = tested on: NCI-H522
[27] = tested on: NCI/ADR-RES
[28] = tested on: OVCAR-3
[29] = tested on: OVCAR-4
[30] = tested on: OVCAR-5
[31] = tested on: OVCAR-8
[32] = tested on: PC-3
[33] = tested on: RPMI-8226
[34] = tested on: RXF 393
[35] = tested on: SF-268
[36] = tested on: SF-295
[37] = tested on: SF-539
[38] = tested on: SK-MEL-28
[39] = tested on: SK-MEL-2
[40] = tested on: SK-MEL-5
[41] = tested on: SK-OV-3
[42] = tested on: SN12C
[43] = tested on: SNB-19
[44] = tested on: SNB-75
[45] = tested on: SR
[46] = tested on: SW-620
[47] = tested on: T47D
[48] = tested on: UACC-257
[49] = tested on: UACC-62
[50] = tested on: UO-31
[51] = tested on: HCC 2998
[52] = tested on: K562
[53] = tested on: MDA-MB-231
[54] = tested on: MDA-N
[55] = tested on: MOLT-4
[56] = tested on: NCI-H226
[57] = tested on: TK-10
[58] = tested on: NCI-H460
[59] = tested on: U-251

CCCSc1ccc2[nH]c(/N=C/c3ccco3)cc2c1
GI50 [1]: 40.2 µM (inactive) | GI50 [2]: 34.4 µM (inactive) | GI50 [3]: 77.6 µM (inactive) | GI50 [4]: 49.5 µM (inactive) | GI50 [5]: 31 µM (inactive) | GI50 [6]: 34 µM (inactive) | GI50 [7]: 27.6 µM (inactive) | GI50 [8]: 22 µM (inactive) | GI50 [9]: 63.5 µM (inactive) | GI50 [10]: 3.77 µM (inactive) | GI50 [11]: 35.4 µM (inactive) | GI50 [12]: 24.3 µM | GI50 [13]: 29.8 µM (inactive) | GI50 [14]: 6.64 µM (inactive) | GI50 [15]: 81.8 µM (inactive) | GI50 [16]: 14.3 µM (inactive) | GI50 [17]: 29.1 µM (inactive) | GI50 [18]: 36.5 µM (inactive) | GI50 [19]: 49.4 µM (inactive) | GI50 [20]: 37.7 µM (inactive) | GI50 [21]: 44.6 µM (inactive) | GI50 [22]: 6.34 µM (inactive) | GI50 [23]: 17.8 µM (inactive) | GI50 [24]: 67.9 µM (inactive) | GI50 [25]: 33.8 µM (inactive) | GI50 [26]: 22.2 µM (inactive) | GI50 [27]: 27.5 µM (inactive) | GI50 [28]: 29.8 µM (inactive) | GI50 [29]: 39.4 µM (inactive) | GI50 [30]: 6.08 µM (inactive) | GI50 [31]: 31.5 µM (inactive) | GI50 [32]: 43.7 µM (inactive) | GI50 [33]: 0.184 µM (active) | GI50 [34]: 22.3 µM (inactive) | GI50 [35]: 52.6 µM (inactive) | GI50 [36]: > 100 µM (inactive) | GI50 [37]: 12.4 µM (inactive) | GI50 [38]: 41.8 µM (inactive) | GI50 [39]: 23.7 µM (inactive) | GI50 [40]: 13.7 µM (inactive) | GI50 [41]: 30.5 µM (inactive) | GI50 [42]: 29.9 µM (inactive) | GI50 [43]: > 100 µM (inactive) | GI50 [44]: > 100 µM (inactive) | GI50 [45]: 1.68 µM (inactive) | GI50 [46]: 40.2 µM (inactive) | GI50 [47]: 38.1 µM (inactive) | GI50 [48]: 33.6 µM (inactive) | GI50 [49]: 52.8 µM (inactive) | GI50 [50]: 41.9 µM (inactive)

O=C(O)c1ccc(P(=O)(O)c2ccc(C(=O)O)cc2Br)c(Br)c1
GI50 [1]: > 100 µM (inactive) | GI50 [3]: > 100 µM (inactive) | GI50 [5]: > 100 µM (inactive) | GI50 [6]: > 100 µM (inactive) | GI50 [7]: > 10 µM (inactive) | GI50 [8]: > 100 µM (inactive) | GI50 [9]: > 100 µM (inactive) | GI50 [10]: > 100 µM (inactive) | GI50 [51]: > 100 µM (inactive) | GI50 [11]: > 100 µM (inactive) | GI50 [12]: > 100 µM | GI50 [13]: > 100 µM (inactive) | GI50 [14]: > 100 µM (inactive) | GI50 [15]: > 100 µM (inactive) | GI50 [17]: > 100 µM (inactive) | GI50 [18]: > 100 µM (inactive) | GI50 [52]: > 100 µM (inactive) | GI50 [19]: > 100 µM (inactive) | GI50 [20]: > 100 µM (inactive) | GI50 [21]: > 100 µM (inactive) | GI50 [22]: > 100 µM (inactive) | GI50 [53]: > 100 µM (inactive) | GI50 [23]: > 100 µM (inactive) | GI50 [54]: > 100 µM (inactive) | GI50 [55]: > 100 µM (inactive) | GI50 [56]: > 100 µM (inactive) | GI50 [25]: > 100 µM (inactive) | GI50 [26]: > 100 µM (inactive) | GI50 [28]: > 100 µM (inactive) | GI50 [31]: > 100 µM (inactive) | GI50 [32]: > 100 µM (inactive) | GI50 [33]: > 100 µM (inactive) | GI50 [34]: > 100 µM (inactive) | GI50 [35]: > 100 µM (inactive) | GI50 [36]: > 100 µM (inactive) | GI50 [37]: > 100 µM (inactive) | GI50 [38]: > 100 µM (inactive) | GI50 [39]: > 100 µM (inactive) | GI50 [40]: > 100 µM (inactive) | GI50 [41]: > 100 µM (inactive) | GI50 [42]: > 100 µM (inactive) | GI50 [43]: > 100 µM (inactive) | GI50 [44]: > 100 µM (inactive) | GI50 [46]: > 100 µM (inactive) | GI50 [57]: > 100 µM (inactive) | GI50 [48]: > 100 µM (inactive) | GI50 [49]: > 100 µM (inactive) | GI50 [50]: > 100 µM (inactive)

COc1cccc(N2C(=O)C3c4[nH]c5ccc(C)cc5c4C4CCC(C)CC4C3C2=O)c1 (configuration not stated)
GI50 [1]: 26.5 µM (inactive) | GI50 [2]: 49 µM (inactive) | GI50 [3]: > 100 µM (inactive) | GI50 [4]: > 100 µM (inactive) | GI50 [5]: 76 µM (inactive) | GI50 [6]: 39.5 µM (inactive) | GI50 [7]: 31.7 µM (inactive) | GI50 [8]: > 100 µM (inactive) | GI50 [9]: > 100 µM (inactive) | GI50 [10]: 32.6 µM (inactive) | GI50 [51]: > 100 µM (inactive) | GI50 [11]: > 100 µM (inactive) | GI50 [12]: > 100 µM | GI50 [13]: 10.6 µM (inactive) | GI50 [14]: 1.4 µM (inactive) | GI50 [15]: 34 µM (inactive) | GI50 [16]: > 100 µM (inactive) | GI50 [17]: 23.7 µM (inactive) | GI50 [18]: 89.5 µM (inactive) | GI50 [52]: 30.3 µM (inactive) | GI50 [20]: > 100 µM (inactive) | GI50 [21]: > 100 µM (inactive) | GI50 [22]: > 100 µM (inactive) | GI50 [53]: 26.5 µM (inactive) | GI50 [23]: > 100 µM (inactive) | GI50 [54]: > 100 µM (inactive) | GI50 [55]: > 10 µM (inactive) | GI50 [24]: > 100 µM (inactive) | GI50 [56]: > 100 µM (inactive) | GI50 [25]: > 100 µM (inactive) | GI50 [58]: > 100 µM (inactive) | GI50 [27]: > 100 µM (inactive) | GI50 [28]: > 100 µM (inactive) | GI50 [30]: > 100 µM (inactive) | GI50 [31]: > 100 µM (inactive) | GI50 [32]: > 100 µM (inactive) | GI50 [33]: > 100 µM (inactive) | GI50 [34]: 18.3 µM (inactive) | GI50 [35]: 47.2 µM (inactive) | GI50 [36]: 35 µM (inactive) | GI50 [37]: 57.5 µM (inactive) | GI50 [38]: > 100 µM (inactive) | GI50 [39]: 24.5 µM (inactive) | GI50 [40]: > 100 µM (inactive) | GI50 [41]: 30.3 µM (inactive) | GI50 [42]: > 100 µM (inactive) | GI50 [43]: 73.3 µM (inactive) | GI50 [45]: > 10 µM (inactive) | GI50 [46]: > 100 µM (inactive) | GI50 [57]: 36.1 µM (inactive) | GI50 [59]: 51.3 µM (inactive) | GI50 [48]: > 100 µM (inactive) | GI50 [49]: 30.3 µM (inactive) | GI50 [50]: > 100 µM (inactive)
